Measured values: article PMC7673538 (PLoS Biology, 2020)
Read-outs that look alike come from different tables or passages of the source.

What was measured:
EV-A71 = assay: microbe, parasite or virus in culture; type: cell-based, enterovirus A71; details: Enterovirus A
CV-B3 [1] = assay: microbe, parasite or virus in culture; type: cell-based, coxsackievirus B3; details: for EC50: Enterovirus B
PV-1 = assay: microbe, parasite or virus in culture; type: cell-based, poliovirus 1; details: Enterovirus C, HeLa R19, read-out: EC50 PV-1
CV-A24 = assay: microbe, parasite or virus in culture; type: cell-based, coxsackievirus A24; details: Enterovirus C, CVA24, HeLa R19, read-out: EC50 CV-A24
EV-D68 = assay: microbe, parasite or virus in culture; type: cell-based, enterovirus D68; details: Enterovirus D
HRV-A2 = assay: microbe, parasite or virus in culture; type: cell-based, human rhinovirus; details: Human rhinovirus sp., HRVA2, HeLa R19, read-out: EC50 HRV-A2
HRV-B14 = assay: microbe, parasite or virus in culture; type: cell-based, human rhinovirus; details: Human rhinovirus sp.
CV-B3 [2] = assay: microbe, parasite or virus in culture; type: cell-based, coxsackievirus B3; details: for EC50: Enterovirus B; remark: listed apart in the source
CV-B3 [3] = assay: microbe, parasite or virus in culture; type: cell-based, coxsackievirus B3; details: Enterovirus B, CVB3, BGM
HeLa R19 cells = details: human; for cytotoxicity (in words): monkey
in vitro [4] = details: human
in vitro [5] = details: human; remark: listed apart in the source
in vitro [6] = details: monkey
[7] = EVA71, HeLa R19, read-out: EC50 EV-A71
[8] = EVA71, HeLa R19, read-out: EC50 Exp1
[9] = EVA71, HeLa R19, read-out: EC50 Exp2
[10] = CVB3, HeLa R19, read-out: CV-B3 EC50 Average
[11] = CVB3, HeLa R19, read-out: CV-B3 Exp 1 EC50
[12] = CVB3, HeLa R19, read-out: CV-B3 Exp2 EC50
[13] = CVB3, HeLa R19, read-out: EC50 HelaR19 Average
[14] = CVB3, HeLa R19, read-out: Exp 2 EC50 HelaR19
[15] = EVD68, HeLa R19, read-out: EC50 EV-D68
[16] = EVD68, HeLa R19, read-out: EC50 Exp1
[17] = EVD68, HeLa R19, read-out: EC50 Exp2
[18] = HRVB14, HeLa R19, read-out: EC50 Exp1
[19] = HRVB14, HeLa R19, read-out: EC50 Exp2
[20] = HRVB14, HeLa R19, read-out: EC50 HRV-B14
[21] = CVB3, HAP1, read-out: EC50 Hap1 Average
[22] = CVB3, HAP1, read-out: Exp 1 EC50 Hap1
[23] = CVB3, HAP1, read-out: Exp 2 EC50 Hap1
[24] = CVB3, HeLa R19, read-out: Exp 1 EC50 HelaR19

| SMILES | EC50 (EV-A71; [7]) [µM] | EC50 (EV-A71; [8]) [µM] | EC50 (EV-A71; [9]) [µM] | effect of the substitution on antiviral activity against CV-B3 (in words) (CV-B3 [1]) | EC50 (CV-B3 [1]; [10]) [µM] | EC50 (CV-B3 [1]; [11]) [µM] | EC50 (CV-B3 [1]; [12]) [µM] | EC50 (CV-B3 [1]; [13]) [µM] | EC50 (CV-B3 [1]; [14]) [µM] | EC50 (PV-1) [µM] | EC50 (CV-A24) [µM] | EC50 (EV-D68; [16]) [µM] | EC50 (EV-D68; [17]) [µM] | EC50 (HRV-A2) [µM] | EC50 (HRV-B14; [18]) [µM] | EC50 (HRV-B14; [19]) [µM] | EC50 (HRV-B14; [20]) [µM] | EC50 (CV-B3 [2]; [22]) [µM] | EC50 (CV-B3 [2]; [23]) [µM] | cytotoxicity (in words) (HeLa R19 cells) | also measured |
| --- | --- | --- | --- | --- | --- | --- | --- | --- | --- | --- | --- | --- | --- | --- | --- | --- | --- | --- | --- | --- | --- |
| COc1ccc(N(Cc2ccc(C(F)(F)F)cc2)C(=O)c2ccco2)cc1 [Compound 19e, N-(4-Methoxyphenyl)-N-(4-(trifluoromethyl)benzyl)furan-2-carboxamide] | 4.08 ± 0.99 | 3.09 | 5.06 | only marginally affected antiviral activity | 0.86 | 0.73 | 0.98 | 0.93 | 0.99 | > 30 | > 30 | 4.72 | 4.21 | > 30 | 7.9 | 8.86 | 8.38 ± 0.48 | 2.14 | 3.56 | cytotoxicity in a similar range as the parental compound 1 | EC50 (EV-A71; EVA71, HeLa R19, read-out: EC50 Average): 4.07 µM; EC50 (EV-D68; [15]): 4.47 ± 0.26 µM; EC50 (CV-B3 [2]; [21]): 2.85 µM; EC50 (CV-B3 [3]; read-out: EC50 BGM Average): 2.41 µM; EC50 (CV-B3 [3]; read-out: Exp 1 EC50 BGM): 2.05 µM; EC50 (CV-B3 [3]; read-out: Exp 2 EC50 BGM): 2.76 µM; CC50 (in vitro [4]; CC50 Average): > 30 µM; CC50 (in vitro [4]; CC50 HelaR19 Average): 54 µM; CC50 (in vitro [4]; Exp 1 CC50): > 30 µM; CC50 (in vitro [4]; Exp 1 CC50 HelaR19): 53 µM; CC50 (in vitro [4]; Exp2 CC50): > 30 µM; CC50 (in vitro [4]; Exp 2 CC50 HelaR19): 55 µM; CC50 (in vitro [5]; CC50 Hap1 Average): 54.9 µM; CC50 (in vitro [5]; Exp 1 CC50 Hap1): 55.3 µM; CC50 (in vitro [5]; Exp 2 CC50 Hap1): 54.5 µM; CC50 (in vitro [6]; CC50 BGM Average): 55.9 µM; CC50 (in vitro [6]; Exp 1 CC50 BGM): 55 µM; CC50 (in vitro [6]; Exp 2 CC50 BGM): 56.9 µM |
| O=C(c1ccco1)N(Cc1ccc(S(F)(F)(F)(F)F)cc1)c1ccccc1 [Compound 19f, N-(4-(Pentafluorosulfaneyl)benzyl)-N-phenylfuran-2-carboxamide] | 4.37 ± 0.5 | 3.87 | 4.87 | only marginally affected antiviral activity | 3.1 | 3.52 | 2.68 | 3.28 | 3.11 | > 30 | > 30 | 13.6 | 15.3 | > 30 | 4.68 | 5.76 | 5.22 ± 0.54 | 2.3 | 1.9 | cytotoxicity in a similar range as the parental compound 1 | EC50 (CV-B3 [1]; [24]): 3.45 µM; EC50 (CV-B3 [2]; [21]): 2.1 µM; EC50 (CV-B3 [3]; read-out: EC50 BGM Average): 2.6 µM; EC50 (CV-B3 [3]; read-out: Exp 1 EC50 BGM): 2.22 µM; EC50 (CV-B3 [3]; read-out: Exp 2 EC50 BGM): 2.98 µM; CC50 (HeLa R19 cells): 32.9 ± 2 µM; CC50 (in vitro [4]; CC50 Average): > 30 µM; CC50 (in vitro [4]; CC50 HelaR19 Average): 32 µM; CC50 (in vitro [4]; Exp 1 CC50): > 30 µM; CC50 (in vitro [4]; Exp 1 CC50 HelaR19): 30 µM; CC50 (in vitro [4]; Exp2 CC50): > 30 µM; CC50 (in vitro [4]; Exp 2 CC50 HelaR19): 34 µM; CC50 (in vitro [5]; CC50 Hap1 Average): 62.5 µM; CC50 (in vitro [5]; Exp 1 CC50 Hap1): 61 µM; CC50 (in vitro [5]; Exp 2 CC50 Hap1): 64.1 µM; CC50 (in vitro [6]; CC50): 31.9 ± 1.41 µM; CC50 (in vitro [6]; CC50 BGM Average): 31.9 µM; CC50 (in vitro [6]; Exp 1 CC50 BGM): 30.5 µM; CC50 (in vitro [6]; Exp 2 CC50 BGM): 33.3 µM |
| CC(C)c1ccc(CN(C(=O)c2ccco2)c2ccccc2)cc1 [Compound 19h, N-(4-Isopropylbenzyl)-N-phenylfuran-2-carboxamide] | 1.89 ± 0.21 | 1.68 | 2.1 | decreased the antiviral activity to a larger extent | 7.03 | 7.95 | 6.11 | 7.65 | 7.8 | > 30 | > 30 | > 30 | > 30 | > 30 | 5.55 | 3.72 | 4.64 ± 0.92 | 4.28 | 3.98 | cytotoxicity in a similar range as the parental compound 1 | antiviral activity against CV-B3 (in words) (CV-B3 [1]): showed antiviral activity; EC50 (CV-B3 [1]; CVB3, HeLa): 7.62 ± 0.93 µM; EC50 (CV-B3 [1]; [24]): 7.5 µM; EC50 (EV-D68; [15]): > 30 µM; antiviral activity against CV-B3 in HAP1 cells (in words) (CV-B3 [2]): showed antiviral activity; EC50 (CV-B3 [3]): > 100 µM; CC50 (HeLa R19 cells): 42.8 ± 1.75 µM; CC50 (in vitro [4]; CC50 Average): > 30 µM; CC50 (in vitro [4]; CC50 HelaR19 Average): 42.7 µM; CC50 (in vitro [4]; Exp 1 CC50): > 30 µM; CC50 (in vitro [4]; Exp 1 CC50 HelaR19): 44.5 µM; CC50 (in vitro [4]; Exp2 CC50): > 30 µM; CC50 (in vitro [4]; Exp 2 CC50 HelaR19): 41 µM; CC50 (in vitro [5]; CC50 Hap1 Average): 48.7 µM; CC50 (in vitro [5]; Exp 1 CC50 Hap1): 48.4 µM; CC50 (in vitro [5]; Exp 2 CC50 Hap1): 49.1 µM; CC50 (in vitro [6]; CC50): 46.8 ± 1.48 µM; CC50 (in vitro [6]; CC50 BGM Average): 46.8 µM; CC50 (in vitro [6]; Exp 1 CC50 BGM): 45.4 µM; CC50 (in vitro [6]; Exp 2 CC50 BGM): 48.3 µM |
